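These data come from cells grown in 96-well plates and exposed to compound for 48 hours at five concentrations. At the TGI there is no net growth.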 Peptide text beside a SMILES is read from it. * marks the point of attachment. Cbz = O=C(OCc1ccccc1)*
Experiments:
Assay in all cases: NCI-60 cell line screen, 48 h
RPMI-8226 leukemia = system: RPMI-8226 leukemia
HOP-62 NSCLC = system: HOP-62 NSCLC
SK-MEL-28 melanoma = system: SK-MEL-28 melanoma
SN12C renal = system: SN12C renal
TK-10 renal = system: TK-10 renal
HS 578T breast = system: HS 578T breast
ACHN renal = system: ACHN renal
OVCAR-8 ovarian = system: OVCAR-8 ovarian
MDA-N = system: MDA-N
CAKI-1 renal = system: CAKI-1 renal
CCRF-CEM leukemia = system: CCRF-CEM leukemia
HCT-15 colon = system: HCT-15 colon
OVCAR-4 ovarian = system: OVCAR-4 ovarian
PC-3 prostate = system: PC-3 prostate
MDA-MB-231 breast = system: MDA-MB-231 breast
OVCAR-5 ovarian = system: OVCAR-5 ovarian
HOP-92 NSCLC = system: HOP-92 NSCLC

| SMILES | TGI (RPMI-8226 leukemia) [µM] | TGI (HOP-62 NSCLC) [µM] | TGI (SK-MEL-28 melanoma) [µM] | TGI (SN12C renal) [µM] | TGI (TK-10 renal) [µM] | TGI (HS 578T breast) [µM] | TGI (ACHN renal) [µM] | TGI (OVCAR-8 ovarian) [µM] | TGI (MDA-N) [µM] | TGI (CAKI-1 renal) [µM] | TGI (CCRF-CEM leukemia) [µM] | TGI (HCT-15 colon) [µM] | TGI (OVCAR-4 ovarian) [µM] | TGI (PC-3 prostate) [µM] | TGI (MDA-MB-231 breast) [µM] | TGI (OVCAR-5 ovarian) [µM] | TGI (HOP-92 NSCLC) [µM] |
| --- | --- | --- | --- | --- | --- | --- | --- | --- | --- | --- | --- | --- | --- | --- | --- | --- | --- |
| COc1cc([N+](=O)[O-])cc2c1NC(=O)C2(C)SC (configuration not stated) | > 100 | > 100 | > 100 | > 100 | > 100 | > 100 | > 100 | > 100 | > 100 | > 100 | > 100 | > 100 | > 100 | > 100 | > 100 | > 100 |  |
| CCOC(=O)CCC(NC(=O)CNC(=O)CNC(=O)C(CCC(=O)OCC)NC(=O)C(CCC(=O)OCC)NC(=O)C(CCC(=O)OCC)NC(=O)OCc1ccccc1)C(=O)NC(CCC(=O)OCC)C(=O)NC(CCC(=O)OCC)C(=O)OCC (configuration not stated) (Cbz-E(OEt)E(OEt)E(OEt)GGE(OEt)E(OEt)E(OEt)-OEt; configuration not given here) | > 75 |  | > 75 | > 75 | > 75 | > 75 | > 75 | > 75 | > 75 | > 75 | > 75 | > 75 | > 75 | > 75 | > 75 | > 75 |  |
| OCCCN=C1N=C(Cl)/C(=C\c2ccccc2)N1 | > 100 |  | > 100 | > 100 | > 100 | > 100 | > 100 | > 100 | > 100 | > 100 | > 100 | > 100 | > 100 |  | > 100 | > 100 | > 100 |
| CN(C)c1cccc2c(S(=O)(=O)NCCCNCCN)cccc12 |  | > 100 | > 100 | > 100 |  | 76.4 | > 100 |  | 69.6 | > 100 | 46 | > 100 | > 100 | > 100 | > 100 | > 100 | 80.4 |
| C[C@]12O[C@@]3(C)O[C@@]3(C)[C@]3(C)O[C@]3(C)[C@@]1(C)O2 |  | > 100 | > 100 | > 100 | > 100 | > 100 | > 100 | > 100 | > 100 | > 100 |  | > 100 | > 100 | > 100 | > 100 | > 100 | > 100 |
| O=[N+]([O-])c1ccc2nc(/C=C(\O)c3ccccc3)c(NC34CC5CC(CC(C5)C3)C4)nc2c1 |  | > 10 | > 10 | > 10 | > 10 | > 10 | > 10 | > 10 | > 10 | > 10 |  | > 10 | > 10 | > 10 | > 10 | > 10 |  |
| O=C1C2CCCCC2C(=O)N1n1c(Cc2ccccc2)n[nH]c1=O (configuration not stated) | > 100 | > 100 |  | > 100 | > 100 | > 100 | > 100 | > 100 | > 100 | > 100 | > 100 | > 100 | > 100 | > 100 | > 100 | > 100 | > 100 |
| CNc1cc(Cl)ccc1C(=O)N1CCC[C@H]1CO |  | > 100 | > 100 | > 100 | > 100 | > 100 | > 100 | > 100 | > 100 | > 100 | > 100 | > 100 | > 100 | > 100 | > 100 | > 100 |  |
| O=C1NC(=O)C23C(=O)NC(=O)C12C1C=CC3CC1 (configuration not stated) | > 10 | > 10 | > 10 | > 10 | > 10 | > 10 | > 10 | > 10 | > 10 | > 10 | > 10 | > 10 | > 10 | > 10 | > 10 |  | > 10 |
| COc1ccc(-c2n[nH]c3nc4ccccc4n3c2=O)cc1 |  | > 100 | > 100 | > 100 | > 100 | > 100 | > 100 | > 100 | > 100 | > 100 | > 100 | > 100 | > 100 | > 100 | > 100 | > 100 | > 100 |
| O=C1c2ccccc2C(=O)c2c1sc1nc3ccccc3n21 | 5.26 |  |  | 2.85 | 12.7 | 0.0525 | 6.27 | 3.82 | 3.49 | 4.27 | 5.48 |  |  | 6.79 | 9.12 | 4.28 | 74.1 |
| CNC(=O)OCC1=C(COC(=O)NC)CN(c2ccc(OC)cc2)C1 | > 100 | > 100 | > 100 | > 100 | > 100 | > 100 | > 100 | > 100 | > 100 |  | > 100 | > 100 | > 100 | > 100 | > 100 | > 100 | > 100 |
| O=C(O)c1ccc2[nH]c(=O)oc2c1 | > 100 | > 100 | > 100 | > 100 | > 100 | > 100 | > 100 | > 100 | > 100 | > 100 | > 100 | > 100 |  | > 100 | > 100 | > 100 |  |
| CN(C(=O)C12C3(C(=O)O)C4C5(C(=O)O)C3C1(C(=O)O)C5C42C(=O)O)C(C)(C)C (configuration not stated) |  | > 100 | > 100 | > 100 | > 100 | > 100 | > 100 | > 100 | > 100 | > 100 | > 100 | > 100 | > 100 | > 100 | > 100 | > 100 | > 100 |

From PubChem BioAssay (NCI)
